We go through two compounds from US10538569B2, “Fusion polypeptide containing GLP and immunoglobulin hybrid Fc and use thereof” (GENEXINE, INC., priority 2014, dated 2020).

Series [1] can be described thus: PK profile of GLP-2-2G peptide, GLP-2-hyFc5 and GLP-2-hyFc9, subcutaneous, rats. On the set-up: species or system Sprague Dawley rats. The conditions noted are these: in vivo, sc, rat, serum, GLP-2 ELISA kit. On the procedure:
In order to confirm the pharmacokinetic profiles (PK profiles) of the GLP-2-hyFc5 and GLP-2-hyFc9 fusion polypeptides prepared above, experiments were performed as follows.
Male Sprague Dawley rats (3 rats/group) were administered subcutaneously with respective proteins (GLP-2-2G peptide, GLP-2-hyFc5, and GLP-2-hyFc9). Blood samples were collected before the administration and after the administration at 0.08-, 0.16-, 0.5-, 2-, 4-, 8-, 24-, 48-, 96-, 120-, and 168 hours, respectively. The blood samples were stored at room temperature for 30 minutes for agglutination. The samples were centrifuged at 3000 rpm for 10 minutes to obtain serum from each sample and then stored in a deep freezer. The samples were quantitated by dilution to be analyzed in a position on a straight line of standard curve using GLP-2 kit (Millipore, Cat. No. EZGLP2-37K).
Background: An ELISA detects its analyte on a solid surface through an enzyme-linked reagent.

The conditions of series [2]: cited from earlier work.

As to `CC[C@H](C)[C@H](NC(=O)[C@H](Cc1ccccc1)NC(=O)[C@H](CC(=O)O)NC(=O)[C@H](CCCNC(=N)N)NC(=O)[C@H](C)NC(=O)[C@H](C)NC(=O)[C@H](CC(C)C)NC(=O)[C@H](CC(N)=O)NC(=O)[C@H](CC(=O)O)NC(=O)[C@H](CC(C)C)NC(=O)[C@@H](NC(=O)[C@@H](NC(=O)[C@H](CC(N)=O)NC(=O)[C@H](CCSC)NC(=O)[C@H](CCC(=O)O)NC(=O)[C@H](CC(=O)O)NC(=O)[C@H](CO)NC(=O)[C@H](Cc1ccccc1)NC(=O)[C@H](CO)NC(=O)CNC(=O)[C@H](CC(=O)O)NC(=O)CNC(=O)[C@@H](N)Cc1c[nH]cn1)[C@@H](C)O)[C@@H](C)CC)C(=O)N[C@@H](CC(N)=O)C(=O)N[C@@H](Cc1c[nH]c2ccccc12)C(=O)N[C@@H](CC(C)C)C(=O)N[C@H](C(=O)N[C@@H](CCC(N)=O)C(=O)N[C@H](C(=O)N[C@@H](CCCCN)C(=O)N[C@H](C(=O)N[C@H](C(=O)N[C@@H](CC(=O)O)C(=O)O)[C@@H](C)O)[C@@H](C)CC)[C@@H](C)O)[C@@H](C)CC` [GLP-2-2G, reference compound], the half-life in series [1] is 72 min.

Consider glucagon like peptide-2 [GLP-2], for which the in-vivo half-life entry in series [2] was “about 7 minutes”.

As usually defined, the half-life is how long it takes for the measured level to halve.
